Assay results: PMC5590800 (Biomolecules & Therapeutics, 2017)
“And” between values parts separate entries of the source, which are not always exact repeats. Identical values can stand only once. Like-named read-outs stand apart in the source and are kept apart here.

Columns and labels:
[1] = In vitro daunomycin cytotoxicity assay; format: cell-based; details: human
[2] = format: in vivo, Sprague-Dawley rats
[3] = oral administration; ref Sezgin-Bayindir et al., 2013; Cai et al., 2014; cited from earlier work
[4] = male, Sprague-Dawley, rat, plasma, iv, 2 mg/kg
[5] = male, Sprague-Dawley, rat, plasma, po, 25 mg/kg

Row | Clt of PTX ([2]; PTX IV 2 mg/kg, rats, 2 mg/kg) | Relative BA of PTX ([2]; PTX PO 25 mg/kg alone (oral control), rats) | Absolute BA of PTX ([2]; PTX PO 25 mg/kg alone vs IV 2 mg/kg, rats) | Clt/F of PTX ([2]; PTX PO 25 mg/kg alone, rats) | AUC(0-inf) [2, 4] | AUC(0-t) [2, 4] | C0 [2, 4] | Vd [2, 4] | half-life [2, 4] | k el [2, 4] | AUC(0-inf) [2, 5] | AUC(0-t) [2, 5] | Cmax [2, 5] | Tmax [2, 5] | Vd/F [2, 5] | half-life [2, 5] | k el [2, 5] | Compound | IC50 at 2 h [1] | Oral bioavailability of PTX [3]
1 | – | – | – | – | – | – | – | – | – | – | – | – | – | – | – | – | – | COc1cccc2c1C(=O)c1c(O)c3c(c(O)c1C2=O)C[C@@](O)(C(C)=O)C[C@@H]3O[C@H]1C[C@H](N)[C@H](O)[C@H](C)O1 [DNM, Daunomycin] | 10.4 ± 0.53 µM | –
2 | 0.328 L/h and 0.328 ± 0.097 L/h | 100.0% | 2.0% | 12.7 ± 2.8 L/h | 1790 ± 522 ng·h/mL | 1660 ± 499 ng·h/mL | 3330 ± 1160 ng/mL | 2.06 ± 0.36 L | 4.55 ± 1.02 h | 4.47e-05 s⁻¹ | 564 ± 116 ng·h/mL | 409 ± 47.2 ng·h/mL | 60.6 ± 10.3 ng/mL | 4.2 ± 1.1 h | 73.6 ± 14.9 L | 4.26 ± 1.62 h | 5.06e-05 s⁻¹ | CC(=O)O[C@H]1C(=O)[C@@]2(C)[C@H]([C@H](OC(=O)c3ccccc3)[C@]3(O)C[C@H](OC(=O)[C@H](O)[C@@H](NC(=O)c4ccccc4)c4ccccc4)C(C)=C1C3(C)C)[C@]1(OC(C)=O)CO[C@@H]1C[C@@H]2O [PTX, Paclitaxel] | – | < 5%
